# Measurements reported in US20230089073A1 (Carmot Therapeutics, Inc., priority 2021, published 2023).
# Target: T1, human GLP-1 receptor (Homo sapiens, UniProt P43220)
# T1 construct: expressed in transfected cells
# Assay: GLP-1R cAMP Assay
# Format: cell-based
# Settings: cAMP accumulation in CHO cells stably overexpressing the human GLP-1 receptor; 30 min treatment; HitHunter cAMP kit; read-out: EC50
# How it was run: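 CHO cells stably overexpressing human GLP-1R, 10,000 cells/well, treated with compound in 20-point dose response in triplicate for 30 min. cAMP accumulation read by enzyme-complementation luminescence after lysis and overnight incubation; dose-response curves fitted.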
# T1 sequence (P43220 24-463): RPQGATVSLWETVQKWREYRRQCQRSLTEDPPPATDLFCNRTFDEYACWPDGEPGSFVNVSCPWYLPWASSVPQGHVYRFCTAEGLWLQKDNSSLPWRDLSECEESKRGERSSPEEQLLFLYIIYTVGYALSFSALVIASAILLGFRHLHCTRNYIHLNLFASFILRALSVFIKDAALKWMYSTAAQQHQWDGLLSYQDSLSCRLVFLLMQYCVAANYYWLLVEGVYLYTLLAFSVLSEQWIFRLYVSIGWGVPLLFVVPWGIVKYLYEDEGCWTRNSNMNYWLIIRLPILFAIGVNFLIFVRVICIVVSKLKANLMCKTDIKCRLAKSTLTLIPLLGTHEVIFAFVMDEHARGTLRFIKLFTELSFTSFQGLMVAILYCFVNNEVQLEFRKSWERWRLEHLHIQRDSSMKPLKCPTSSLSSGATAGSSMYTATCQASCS
row,EC50 [nM],Compound
1,> 500,"CCn1cncc1Cn1c(CN2CCN(C(=O)c3ccc(COc4ccc(Cl)cc4Cl)s3)CC2)nc2ccc(C(=O)O)cc21 [Compound 71, 2-[(4-{5-[(2,4-dichlorophenoxy)methyl]thiophene-2-carbonyl}piperazin-1-yl)methyl]-1-[(1-ethyl-1H-imidazol-5-yl)methyl]-1H-1,3-benzodiazole-6-carboxylic acid]"
2,> 500,"O=C(O)c1ccc2nc(CN3CCC(Oc4cccnc4COc4ccc(Cl)cc4Cl)CC3)n(C[C@@H]3CCO3)c2c1 [Compound 286, 2-{[4-({2-[(2,4-dichlorophenoxy)methyl]pyridin-3-yl}oxy)piperidin-1-yl]methyl}-1-{[(2S)-oxetan-2-yl]methyl}-1H-1,3-benzodiazole-6-carboxylic acid]"
3,> 500,"Cc1ccc(Nc2cccc(C(=O)N3CCN(Cc4nc5ccc(C(=O)O)cc5n4C[C@@H]4CCO4)CC3)c2)cc1 [Compound 25, 2-[(4-{3-[(4-methylphenyl)amino]benzoyl}piperazin-1-yl)methyl]-1-{[(2S)-oxetan-2-yl]methyl}-1H-1,3-benzodiazole-6-carboxylic acid]"
4,< 50,"O=C(O)c1ccc2nc(CN3CCC(Oc4ccnc(COc5ccc(Cl)cc5Cl)c4)CC3)n(CC3CNC3)c2c1 [Compound 280, 1-[(azetidin-3-yl)methyl]-2-{[4-({2-[(2,4-dichlorophenoxy)methyl]pyridin-4-yl}oxy)piperidin-1-yl]methyl}-1H-1,3-benzodiazole-6-carboxylic acid]"
5,< 50,"CCn1cncc1Cn1c(CN2CCC([C@H](F)c3cccc(COc4ccc(Cl)cc4Cl)c3)CC2)nc2ccc(C(=O)O)cc21 (single isomer, unassigned) [Compound 202]"
6,< 50,"CCn1cncc1Cn1c(CN2CCN(C(=O)c3cnc(COc4ccc(Cl)cc4Cl)o3)CC2)nc2ccc(C(=O)O)cc21 [Compound 156, 2-[(4-{2-[(2,4-dichlorophenoxy)methyl]-1,3-oxazole-5-carbonyl}piperazin-1-yl)methyl]-1-[(1-ethyl-1H-imidazol-5-yl)methyl]-1H-1,3-benzodiazole-6-carboxylic acid]"

# Second part, the compound before the results:
row,Compound,EC50 [nM]
1,"Cc1ccc(Oc2cccc(C(=O)N3CCN(Cc4nc5ccc(C(=O)O)cc5n4C[C@@H]4CCO4)CC3)c2)c(C)c1 [Compound 18, 2-({4-[3-(2,4-dimethylphenoxy)benzoyl]piperazin-1-yl}methyl)-1-{[(2S)-oxetan-2-yl]methyl}-1H-1,3-benzodiazole-6-carboxylic acid]",50 to 500
2,O=C(O)c1cc(F)c2nc(CN3CCC(Oc4ccnc(COc5ccc(F)cc5Cl)n4)CC3)n(CC3(CF)CC3)c2c1 [Compound 327],< 50
3,"CCn1cncc1Cn1c(CN2CCC(Cc3cccc(COc4ccc(Cl)cc4Cl)n3)CC2)nc2ccc(C(=O)O)cc21 [Compound 140, 2-{[4-({6-[(2,4-dichlorophenoxy)methyl]pyridin-2-yl}methyl)piperidin-1-yl]methyl}-1-[(1-ethyl-1H-imidazol-5-yl)methyl]-1H-1,3-benzodiazole-6-carboxylic acid]",< 50
4,COCCC1(Cn2c(CN3CCC(Oc4ccnc(COc5ccc(Cl)cc5F)c4)CC3)nc3ccc(C(=O)O)cc32)CC1 [Compound 354],< 50
5,"C[C@H]1C[C@@H](Oc2nc(COc3ccc(C#N)cc3F)ncc2F)CCN1Cc1nc2ccc(C(=O)O)cc2n1C[C@@H]1CCO1 [Compound 493, 2-{[(2S,4S)-4-({2-[(4-cyano-2-fluorophenoxy)methyl]-5-fluoropyrimidin-4-yl}oxy)-2-methylpiperidin-1-yl]methyl}-1-{[(2S)-oxetan-2-yl]methyl}-1H-1,3-benzodiazole-6-carboxylic acid]",< 50
6,"N#Cc1cc(Cl)ccc1OCc1cccc(OC2CCN(Cc3nc4ccc(C(=O)O)cc4n3Cc3cnco3)CC2)n1 [Compound 252, 2-{[4-({6-[(4-chloro-2-cyanophenoxy)methyl]pyridin-2-yl}oxy)piperidin-1-yl]methyl}-1-[(1,3-oxazol-5-yl)methyl]-1H-1,3-benzodiazole-6-carboxylic acid]",> 500
